We go through 49 molecules from ChEMBL document CHEMBL1148381, “Application of CoMFA and CoMSIA 3D-QSAR and docking studies in optimization of mercaptobenzenesulfonamides as HIV-1 integrase inhibitors” (J Med Chem, 2004).

Test [1] deals with T1, Human immunodeficiency virus type 1 integrase (Human immunodeficiency virus 1, UniProt Q7ZJM1). Kind of test: Inhibitory activity against 3' processing by HIV integrase.
In test [2] the target is T1, Human immunodeficiency virus type 1 integrase. Briefly: Inhibitory activity against DNA strand transfer by HIV integrase.

T1 sequence (Q7ZJM1 whole entry): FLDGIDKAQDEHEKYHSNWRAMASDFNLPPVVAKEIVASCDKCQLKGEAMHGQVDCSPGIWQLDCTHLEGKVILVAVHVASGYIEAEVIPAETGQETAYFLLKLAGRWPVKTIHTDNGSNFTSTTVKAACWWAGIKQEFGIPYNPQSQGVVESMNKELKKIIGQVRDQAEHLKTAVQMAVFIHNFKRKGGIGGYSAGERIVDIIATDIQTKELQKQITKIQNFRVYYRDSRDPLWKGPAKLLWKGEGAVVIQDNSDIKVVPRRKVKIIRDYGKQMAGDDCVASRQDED

Broadly, the IC50 is the concentration needed to halve the response being measured. Lower therefore signals greater potency. For the molecule `Cc1cc(S(=O)(=O)Nc2nc3ccccc3[nH]2)c(S)cc1Cl`, the IC50 in test [1] is 38.9 µM; in test [2], 43.7 µM. The corresponding values for `CCCCn1cnnc1NS(=O)(=O)c1cc(C(=O)Nc2ccc(Cl)cc2)c(Cl)cc1S` are 36.3 µM and 43.7 µM. Regarding `Cc1ccc(Nc2nc(NS(=O)(=O)c3cc(C)c(Cl)cc3S)n(C)n2)cc1`, the IC50 in test [1] is 23.4 µM; in test [2], 19.1 µM.

As to `Cc1cc2c(cc1Cl)SC(C1C(=O)NC(=O)NC1=O)NS2(=O)=O` (configuration not stated), the half-inhibitory concentration (IC50) in test [1] and in test [2] was 60.3 µM throughout.

For `Cc1cc2c(cc1Cl)SC(C(C#N)C(=O)c1ccccc1)NS2(=O)=O` (configuration not stated), the half-inhibitory concentration (IC50) in test [1] was 200 µM; in test [2], 112 µM. Regarding `Cc1cc2c(cc1Cl)SC(C1C(=O)NC(=S)NC1=O)NS2(=O)=O` (configuration not stated), the half-inhibitory concentration (IC50) in test [1] is 60.3 µM; in test [2] it was 50.1 µM. The corresponding values for `Cc1cc(S(=O)(=O)Nc2nnc3c4scc(C)c4ncn23)c(S)cc1Cl` are 9.33 µM and 7.41 µM. The matching figures for `Cc1cc(S(=O)(=O)Nc2nc(N)n(-c3ccccn3)n2)c(S)cc1Cl`: 14.5 µM and 22.9 µM. For the molecule `Cc1cc(S(=O)(=O)Nc2nc3ccccc3nc2-c2cccc([N+](=O)[O-])c2)c(S)cc1Cl`, the values for the IC50 in test [1] and in test [2] were 15.1 µM and 7.94 µM, respectively. The corresponding values for `Cc1cc(S(=O)(=O)Nc2nnc3c(C(F)(F)F)cc(Cl)cn23)c(S)cc1Cl` are 10.7 µM and 24 µM. The corresponding values for `O=C1NC(=S)SC1NS(=O)(=O)c1ccc(-c2ncccn2)cc1` (configuration not stated) are 28.8 µM and 14.1 µM. The matching figures for `Cc1cc(S(=O)(=O)Nc2nnc3cc(C(F)(F)F)cc(C)n23)c(S)cc1Cl`: 18.6 µM and 11 µM. For `Cc1cc2nc3nc(N)nc(NS(=O)(=O)c4cc(C)c(Cl)cc4S)n3c2cc1C`, the 50% inhibitory concentration (IC50) in test [1] is 5.5 µM; in test [2], 4.27 µM. The matching figures for `O=S(=O)(Nc1nnc2c3ccccc3ccn12)c1ccc(F)cc1S`: 51.3 µM and 47.9 µM. In the case of `CCC(C)n1cnnc1NS(=O)(=O)c1cc(C(=O)Nc2ccc(C)cc2)c(Cl)cc1S` (configuration not stated), the 50% inhibitory concentration (IC50) in test [1] is 200 µM; in test [2], 112 µM. The corresponding values for `Cc1cc(S(=O)(=O)Nc2nc(N)nc3nc4ccccc4n23)c(S)cc1Cl` are 9.77 µM and 7.76 µM. `Cc1ccnc(NS(=O)(=O)c2ccc(/N=N/c3cc4ccccc4c(C(=O)O)c3O)cc2)n1`: the results for the IC50 in test [1] and in test [2] were 19.5 µM and 32.4 µM, respectively.

Turning to `Cc1ccc(-n2cnnc2NS(=O)(=O)c2cc(C(=O)Nc3ccccc3)c(Cl)cc2S)cc1`, the IC50 in test [1] is 6.03 µM; in test [2], 10 µM. With `Cc1ccc(NC(=O)c2cc(S(=O)(=O)Nc3nncn3CC(C)C)c(S)cc2Cl)cc1`, the half-inhibitory concentration (IC50) is 75.9 µM in test [1] and 100 µM in test [2]. As for `O=C(O)c1cc2ccccc2c(/N=N/c2ccc(S(=O)(=O)Nc3nccs3)cc2)c1O`, the half-inhibitory concentration (IC50) in test [1] was 21.4 µM; in test [2], 42.7 µM. In the case of `Cc1cc(S(=O)(=O)NC(=NN)Nc2ccc(Cl)cc2)c(S)cc1Cl`, the IC50 in test [1] and in test [2] was 3.55 µM each time. `COc1ccc(Nc2n[nH]c(NS(=O)(=O)c3cc(C)c(Cl)cc3S)n2)cc1`: the IC50 in test [1] was 15.5 µM; in test [2], 14.1 µM.

Regarding `CCCCn1cnnc1NS(=O)(=O)c1cc(C(N)=O)c(Cl)cc1SCC(=O)O`, the half-inhibitory concentration (IC50) in test [1] and in test [2] was 417 µM in each case. As for `CCCn1cnnc1NS(=O)(=O)c1cc(C(=O)Nc2ccc(C)cc2)c(Cl)cc1SCC(=O)O`, the 50% inhibitory concentration (IC50) in test [1] and in test [2] was 43.7 µM each time. Regarding `Cc1cc(S(=O)(=O)Nc2nnc3c4c(C)csc4ncn23)c(S)cc1Cl`, the IC50 in test [1] is 3.63 µM; in test [2], 3.47 µM. With `Cc1cc(S(=O)(=O)Nc2n[nH]c(-c3ccc(Cl)cn3)n2)c(S)cc1Cl`, the IC50 in test [1] is 8.91 µM; in test [2], 10.2 µM. The corresponding values for `Cc1cc(S(=O)(=O)Nc2nc(Nc3ccc(Cl)cc3)nn2C)c(S)cc1Cl` are 16.2 µM and 17.8 µM.

As for `Cc1ccc(Nc2n[nH]c(NS(=O)(=O)c3cc(C)c(Cl)cc3S)n2)cc1`, the IC50 in test [1] was 22.4 µM; in test [2], 24 µM.

Take `CC(=O)Oc1cc(S(=O)(=O)Nc2nnc(Nc3ccc(C)cc3)[nH]2)c(S)cc1Cl`: the IC50 in test [1] was 7.59 µM; in test [2], 10 µM.

For `Cc1cc(S(=O)(=O)Nc2nnc(Nc3ccccc3)[nH]2)c(S)cc1Cl`, the values for the 50% inhibitory concentration (IC50) in test [1] and in test [2] were 16.2 µM and 12.6 µM, respectively. The corresponding values for `CC1N=NC(c2ccc(S(=O)(=O)NC3SC(=S)NC3=O)cc2)S1` (configuration not stated) are 24 µM and 19.1 µM.

As for `CC1=NNC(=O)C1/N=N/c1ccc(S(=O)(=O)Nc2nccs2)cc1` (configuration not stated), the 50% inhibitory concentration (IC50) is 70.8 µM in test [1] and 61.7 µM in test [2]. Turning to `Cc1ccc(-n2cnnc2NS(=O)(=O)c2cc(C(=O)Nc3ccc(Cl)cc3)c(Cl)cc2S)cc1`, the IC50 in test [1] and in test [2] was 3.98 µM in each case. Consider `CCCn1cnnc1NS(=O)(=O)c1cc(C(=O)Nc2ccc(C)cc2)c(Cl)cc1S`, for which the concentration for half-maximal inhibition (IC50) in test [1] is 40.7 µM; in test [2], 39.8 µM. The corresponding values for `O=C(Nc1ccccc1)c1cc(S(=O)(=O)Nc2nncn2-c2ccc(Cl)cc2)c(S)cc1Cl` are 6.03 µM and 12 µM. For the molecule `Cc1cc(S(=O)(=O)Nc2nc3ccccc3nc2-c2ccc(Br)cc2)c(S)cc1Cl`, the IC50 was 12.3 µM in test [1] and 7.94 µM in test [2].

In the case of `Cc1cc(S(=O)(=O)Nc2nc(N)nc(N(C)C)n2)c(S)cc1Cl`, the IC50 in test [1] is 77.6 µM; in test [2] it was 41.7 µM. Turning to `O=C(Nc1ccc(F)cc1)c1cc(S(=O)(=O)Nc2nncn2-c2ccc(F)cc2)c(S)cc1Cl`, the figures for the IC50 in test [1] and in test [2] were 79.4 µM and 37.2 µM, respectively. Consider `Cc1cc(C(F)(F)F)cc(-n2nc(NS(=O)(=O)c3cc(C)c(Cl)cc3S)nc2N)n1`, for which the IC50 in test [1] was 9.33 µM; in test [2] it was 6.31 µM. The corresponding values for `O=S(=O)(Nc1nccs1)c1ccc(/N=N/c2cnc(O)c(O)c2)cc1` are 22.9 µM and 20.9 µM. The corresponding values for `Cc1cc(S(=O)(=O)Nc2nc(Nc3ccccc3)nn2C)c(S)cc1Cl` are 27.5 µM and 15.8 µM.

On to `CCN(c1ccccc1)c1nc(N)nc(NS(=O)(=O)c2cc(C)c(Cl)cc2S)n1`, for which the IC50 in test [1] is 17.4 µM; in test [2], 24.5 µM.

With `Cc1cc(S(=O)(=O)Nc2nc(N)n(-c3ccccc3)n2)c(S)cc1Cl`, the half-maximal inhibitory concentration (IC50) in test [1] is 10.7 µM; in test [2], 13.2 µM. The matching figures for `Cc1cc(S(=O)(=O)Nc2nnc3ccccn23)c(S)cc1Cl`: 123 µM and 110 µM. Regarding `O=C(Nc1ccccc1)c1cc(S(=O)(=O)Nc2nncn2-c2ccc(F)cc2)c(S)cc1Cl`, the half-inhibitory concentration (IC50) in test [1] was 45.7 µM; in test [2], 50.1 µM.

With `O=S(=O)(Nc1nnc2c3ccccc3cnn12)c1ccc(Cl)cc1S`, the values for the IC50 in test [1] and in test [2] were 28.8 µM and 38.9 µM, respectively. The matching figures for `Cc1cc(S(=O)(=O)Nc2nnc3c4ccccc4ccn23)c(S)cc1Cl`: 13.2 µM and 10.7 µM. The corresponding values for `Cc1cc(S(=O)(=O)Nc2nnc3ccc4ccccc4n23)c(S)cc1Cl` are 12.9 µM and 7.41 µM.

The molecule `COC(=O)CSc1cc(Cl)c(C)cc1S(=O)(=O)Nc1nnc(N)[nH]1` gave an IC50 in test [1] of 200 µM.
